In patent US20200085784A1, “METHODS TO TREAT FIBROSIS, NASH, AND NAFLD” (Minneamrita Therapeutics, LLC, priority 2018, published 2020):
Structures can show the parent of a compound that is named as a salt.

Key:
[1] = test system: CCl4-induced liver fibrosis; test: Mouse model of carbon tetrachloride (CCl4) liver fibrosis; type: in vivo, C57Bl6/J mice
Description: Two animal models were used: Mouse model of Carbon tetrachloride (CCl4). In this model, C57Bl6/J mice (8 weeks of age; ˜25 g) received twice a week during 4 weeks 250 μL i.p. of either olive oil or CCl4 at a dose of 3.5 ml/kg diluted in olive oil. Animals were treated with 0.2 mg/kg Minnelide after 4 weeks of CCl4.
(§1) For both models, injury and fibrosis were determined by examination of histological specimens by H&E staining as well as picrosirius red staining.

[2] = test system: DEN+CCl4-induced liver fibrosis; test: Mouse model of CCl4+Diethylnitrosamine (DEN)-induced liver injury; type: in vivo, C57Bl6/J mice; details: for DEN+CCl4-induced collagen deposition (Massons Trichrome and Sirius red staining): Minnelide 0.2 mg/kg, compared to the vehicle
Description: Mouse model of CCl4+Diethylnitrosamine (DEN)-induced liver injury. C57Bl6/J mice (3 weeks of age; ˜15 g) received one single dose of DEN (25 mg/kg). From 8 weeks of age; (˜25 g) they receive twice a week during 4 weeks 250 μL i.p. of either olive oil or CCl4 at a dose of 0.2 ml/kg diluted in olive oil. Animals were treated with 0.2 mg/kg Minnelide after 4 weeks of CCl4.
as §1

[3] = test system: DIO-NASH mouse model; test: Diet-induced obese (DIO) mouse model of non-alcoholic steatohepatitis (NASH); type: in vivo, C57BL/6JRj mice; details: Minnelide 0.1 mg/kg PO QD, 8 weeks; compared to vehicle treated control DIO-NASH mice
Description: To investigate the effect of 8 weeks of treatment with Minnelide alone and in combination with Elafibranor or Liraglutide in DIO-NASH mouse model, metabolic parameters, hepatic pathology and NAFLD Activity Score (NAS) including Fibrosis Stage data were collected.
Male […] mice were obtained from Janvier Labs (Le Genest Saint Isle, France). Mice had ad libitum access to tap water and either regular rodent chow (Altromin 1324, Brogaarden, Hoersholm, Denmark), or a diet high in fat (40%, containing 18% trans-fat), 40% carbohydrates (20% fructose) and 2% cholesterol (AMLN diet; D09100301, Research Diets, New Brunswick, N.J.). C57BL/6JRj mice were fed regular chow as lean chow vehicle control group or AMLN diet as DIO-NASH mice for 35 weeks prior to treatment start.
All animals included in the drug treatment experiments underwent liver biopsy for baseline characterization of hepatic parameters and stratified randomization into treatment groups. Mice are anesthetized by inhalation anesthesia using isoflurane (2-3%). […] A stratified randomization into treatment groups is performed according to liver Collagen 1a1 quantification. […]
Biochemical and histological analyses were performed as reported previously (Tølbøl, et al. World J Gastroenterol. Jan. 14, 2018; 24(2): 179-194). […] Liver homogenates were analyzed for TG and TC. […]

[4] = therapeutic intervention, CCl4 induced liver fibrosis
[5] = therapeutic intervention, DEN+CCl4 induced liver fibrosis

For `CC(C)[C@]12O[C@H]1[C@@H]1O[C@]13[C@]1(O[C@H]1C[C@H]1C4=C(CC[C@@]13C)C(=O)OC4)[C@@H]2OCOP(=O)(O)O` [Minnelide, 14-O-phosphonooxymethyltriptolide disodium salt], the “steatosis, ballooning, and inflammatory foci (liver H&E staining)” value (“steatosis, ballooning” below) ([1]; CCl4 administration, 8 week time point) was “reduced”, the “α-SMA expression (immunofluorescence staining)” value ([1]; CCl4 model) was “reduced” and the “CCl4-induced collagen deposition (Massons Trichrome and Sirius red staining)” value ([1]; Minnelide 0.2 mg/kg, compared to the vehicle) was “inhibited”. The fibrosis [1, 4] was “reduction”, the plasma biochemical markers [1, 4] was “reduction” and the “expression of Tnf-α, IL6, IL-1β and iNOS (inflammation associated genes)” value ([2]; 8 week time point) was “decreased”. For the same compound, the “expression of inflammasome genes (NLRP3, apoptosis-associated speck-like protein containing a CARD, caspase1, IL-1β, IL18)” value ([2]; 8 week time point) was “decreased”, the “steatosis, ballooning” value ([2]; 12 week time point) was “reduced” and the “steatosis, ballooning” value ([2]; DEN+CCl4 administration, 8 week time point) was “reduced”. The “α-SMA expression (immunofluorescence staining)” value ([2]; DEN+CCl4 model) was “reduced”, the “DEN+CCl4-induced collagen deposition (Massons Trichrome and Sirius red staining)” value [2] was “inhibited” and the “DEN+CCl4-induced collagen deposition (Massons Trichrome and Sirius red staining)” value ([2]; 12 week time point paragraph) was “inhibited”. For the same compound, the fibrosis [2, 5] was “reduction”, the plasma biochemical markers [2, 5] was “reduction” and the “reduction in liver Galectin-3 (% fractional area)” value [3] was 18.41%.
